Values quoted from earlier work in patent publication US6995188B2 (priority 2002, dated 2006).
Where two headings read alike, the source gives them in different places.

Columns and labels:
[1] = tested on: P388 lymphocytic leukemia cells; conditions: mouse, in vivo, ip, cited from earlier work
[2] = tested on: APL and non-APL cell lines; conditions: compared with arsenic trioxide; cited from earlier work
[3] = tested on: patients with advanced leukemia; conditions: 8 patients, 3 days per week for 3 consecutive weeks; cited from earlier work

## CC(=O)OC[C@H]1O[C@@H](S[As](C2CCCCC2)C2CCCCC2)[C@H](OC(C)=O)[C@@H](OC(C)=O)[C@@H]1OC(C)=O [Compound 6, 2,3,4,6-tetra-O-acetyl-1-S-dicyclohexylarsino-1-thio-β-D-glucopyranose]
[1]; 400 mg/kg
  % T/C: Toxic

## Nc1nc(N)nc(Nc2ccc([As]3SCC(CO)S3)cc2)n1 (centres unmarked) [melarsoprol]
[2]
  activity against APL and non-APL cell lines: activity at least equivalent to that of arsenic trioxide
[3]
  antitumor effects: Only one patient (with chronic lymphocytic leukemia) displayed antitumor effects
  side effects: most experienced neurological side effects

## CC[As](CC)S[C@@H]1O[C@H](COC(C)=O)[C@@H](OC(C)=O)[C@H](OC(C)=O)[C@H]1OC(C)=O [Compound 3, 2,3,4,6-tetra-O-acetyl-1-S-diethylarsino-1-thio-β-D-glucopyranose]
[1]; 100 mg/kg
  % T/C: 180%

## CC(=O)OC[C@H]1O[C@@H](S[As](C)C)[C@H](OC(C)=O)[C@@H](OC(C)=O)[C@H]1OC(C)=O [Compound 16, 2,3,4,6-tetra-O-acetyl-1-S-dimethylarsino-1-thio-β-D-galactopyranose]
[1]; 100 mg/kg
  % T/C: 129%

## CC(=O)N[C@@H]1[C@@H](OC(C)=O)[C@H](OC(C)=O)[C@@H](COC(C)=O)O[C@H]1S[As](C)C [Compound 18, 2-acetamido-3,4,6-tri-O-acetyl-2-deoxy-1-S-dimethylarsino-1-thio-β-D-glucopyranose]
[1]; 50 mg/kg
  % T/C: 136%

## C[As](C)SCC(N)C(=O)O (racemic) [Compound 10, S-dimethylarsino-DL-cysteine]
[1]; 50 mg/kg
  % T/C: 110%

## 2,3,4,6-tetra-O-acetyl-1-S-hydroxyethylmethyl-1-thio-β-D-glucopyranose [Compound 4]
[1]; 100 mg/kg
  % T/C: 116%

## CC(C)CCC[C@@H](C)[C@H]1CC[C@H]2[C@@H]3CC=C4C[C@@H]([Se][As](C)C)CC[C@]4(C)[C@H]3CC[C@]12C [Compound 15, Se-dimethylarsino-selenocholesterol]
[1]; 200 mg/kg
  % T/C: 129%

## CCC[As](CCC)S[C@@H]1O[C@H](COC(C)=O)[C@@H](OC(C)=O)[C@H](OC(C)=O)[C@H]1OC(C)=O [Compound 2, 2,3,4,6-tetra-O-acetyl-1-S-dipropylarsino-1-thio-β-D-glucopyranose]
[1]; 200 mg/kg
  % T/C: 124%

## CCCC[As](CCCC)S[C@@H]1O[C@H](COC(C)=O)[C@@H](OC(C)=O)[C@H](OC(C)=O)[C@H]1OC(C)=O [Compound 1, 2,3,4,6-tetra-O-acetyl-1-S-dibutylarsino-1-thio-β-D-glucopyranose]
[1]; 100 mg/kg
  % T/C: 117%

## CCCCCCCCCCCCCCCC[As](CCCCCCCCCCCCCCCC)S[C@@H]1O[C@H](COC(C)=O)[C@@H](OC(C)=O)[C@H](OC(C)=O)[C@H]1OC(C)=O [Compound 5, 2,3,4,6-tetra-O-acetyl-1-S-dihexadecylarsino-1-thio-β-D-glucopyranose]
[1]; 50 mg/kg
  % T/C: 125%

## CC(=O)N[C@H]1[C@@H](OC(C)=O)O[C@H](CS[As](C)C)[C@@H](OC(C)=O)[C@@H]1OC(C)=O [Compound 20, 2-acetamido-1,3,4-tri-O-acetyl-2-deoxy-6-S-dimethylarsino-6-thio-α-D-glucopyranose]
[1]; 100 mg/kg
  % T/C: 136%
